Measurements as given in patent publication US20230404080A1, “A METHOD OF CONTROLLING HERBICIDE RESISTANT WEEDS” (UPL Corporation Limited, priority 2020, published 2023).

System: Spermacoce verticillate
Experiment: Example 1 trial: herbicidal combinations on Spermacoce verticillate resistant to Group 4 and Group 9 herbicides
Format: in vivo
Settings: for % weed control at 14 DA-B: 14 days after sequential application B, B applied 15 days after A, scale 0 (no damage) to 100 (complete destruction) vs untreated control, rates per Table 1; for control of S. verticillate weeds (in words): Example 1, sequential application used after glyphosate+triclopyr at 15 DA-A
Protocol: Trials were carried out for evaluating the effect of herbicidal combinations on target weeds of Spermacoce verticillate resistant to herbicides belonging to Group 4 and Group 9. The evaluation for the damage on undesired weeds caused by the present compositions was carried out using a scale from 0 to 100%, compared to the untreated control plants. Here, 0 means no damage and 100 means complete destruction of weed. In the following experiments, the herbicidal activity for the herbicidal combinations was assessed till 28 days after treatment (application A).
In this trial, time T was application time, application A was performed first and at 15 days, application B was performed out in treatments with sequential application. The tested herbicides were sourced from the formulations readily available.

| Compound | % weed control at 14 DA-B | control of S. verticillate weeds (in words) |
| --- | --- | --- |
| O=C(O)COc1nc(Cl)c(Cl)cc1Cl [Triclopyr (A), Triclopyr] | 42.5% | do not efficiently control |
| O=C(O)CNCP(=O)(O)O [Glyphosate (A), N-(phosphonomethyl)glycine] | 22% | do not efficiently control |
